Activity calls are given as the source filed them. No cut-off for these calls is given here.
How the values were obtained:
Neutrophil elastase = target: T1, Neutrophil elastase (Homo sapiens, UniProt P08246); test: The compound was evaluated in vitro for the inhibition of human leukocyte elastase(HLE)
T1 sequence (P08246 whole entry): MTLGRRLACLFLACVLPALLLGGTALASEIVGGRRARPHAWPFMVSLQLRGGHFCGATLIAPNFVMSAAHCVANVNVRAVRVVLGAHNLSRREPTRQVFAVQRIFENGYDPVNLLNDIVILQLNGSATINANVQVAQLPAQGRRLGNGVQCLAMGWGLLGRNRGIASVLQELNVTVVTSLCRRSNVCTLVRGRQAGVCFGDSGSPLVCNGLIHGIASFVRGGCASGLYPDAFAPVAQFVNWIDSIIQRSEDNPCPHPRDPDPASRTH

[1] = target: T2, Neutrophil elastase (Homo sapiens) (UniProt P08246); test: The compound was evaluated in vitro for the inhibition of human leukocyte elastase(HLE); Not Active
T2 sequence (whole entry): T1 sequence (P08246 whole entry)

[2] = target: T3, Chymotrypsin-like elastase family member 2A (Sus scrofa) (UniProt P08419); test: The compound was evaluated in vitro for the inhibition of Pancreatic elastase (PPE); Not Active
T3 sequence (whole entry): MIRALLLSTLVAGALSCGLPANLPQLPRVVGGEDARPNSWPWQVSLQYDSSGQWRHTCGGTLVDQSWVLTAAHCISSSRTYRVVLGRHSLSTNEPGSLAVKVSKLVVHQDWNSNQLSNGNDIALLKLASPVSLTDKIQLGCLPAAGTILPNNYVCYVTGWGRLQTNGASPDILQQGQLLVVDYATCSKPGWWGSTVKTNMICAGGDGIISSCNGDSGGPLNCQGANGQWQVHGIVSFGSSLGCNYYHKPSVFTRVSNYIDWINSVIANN

SMILES	IC50 (Neutrophil elastase)	Activity [1]	Activity [2]
CO[C@@H]1C(=O)N(C(C)=O)[C@@H]1/C(C)=C/c1ccccc1	1.4 µM	–	–
CCCC[C@H]1C(=O)N([C@@H](C2SCCCS2)C2OC(C)(C)OC2C2COC(C)(C)O2)[C@H]1/C(C)=C/c1ccccc1 (stereo not given in full)	13 µM	–	–
CO[C@@H]1C(=O)N(C(C)=O)[C@@H]1C(C)=O	94 µM	–	–
CCCC[C@@H]1C(=O)N(C(C)=O)[C@@H]1C(C)=O	45 µM	–	–
CCCC[C@@H]1C(=O)N(C(C)=O)[C@@H]1/C(C)=C/c1ccccc1	43 µM	–	–
CO[C@@H]1C(=O)N[C@@H]1c1ccccc1	–	inactive	inactive
CO[C@@H]1C(=O)N(C(C)=O)[C@@H]1c1ccccc1	1.6 µM	–	–
O=c1oc(Cl)c(Cl)c2ccccc12	0.1 µM	–	–
CO[C@H]1C(=O)N[C@H]1c1ccccc1	–	inactive	inactive
CCCC[C@@H]1C(=O)N[C@@H]1C(C)=O	–	inactive	inactive
CO[C@@H]1C(=O)N[C@@H]1/C(C)=C/c1ccccc1	–	inactive	inactive
CO[C@H]1C(=O)N[C@H]1/C=C/c1ccccc1	–	inactive	inactive
CO[C@@H]1C(=O)N([C@@H](C2SCCCS2)C2OC(C)(C)OC2C2COC(C)(C)O2)[C@@H]1/C(C)=C/c1ccccc1 (stereo not given in full)	18 µM	–	–
CO[C@@H]1C(=O)N[C@@H]1C(C)=O	–	inactive	inactive
CO[C@@H]1C(=O)N[C@@H]1/C=C/c1ccccc1	–	inactive	inactive
CCCC[C@@H]1C(=O)N([C@@H](C2SCCCS2)C2OC(C)(C)OC2C2COC(C)(C)O2)[C@@H]1/C(C)=C/c1ccccc1 (stereo not given in full)	11 µM	–	–
CO[C@@H]1C(=O)N[C@@H]1OC(C)=O	–	inactive	inactive
CCCC[C@@H]1C(=O)N[C@@H]1/C(C)=C/c1ccccc1 (stereo in doubt; 10)	–	inactive	inactive
CCCC[C@@H]1C(=O)N[C@@H]1/C(C)=C/c1ccccc1 (stereo in doubt; 11)	–	inactive	inactive
CO[C@H]1C(=O)N([C@@H](C2SCCCS2)C2OC(C)(C)OC2C2COC(C)(C)O2)[C@H]1/C=C/c1ccccc1 (stereo not given in full)	76 µM	–	–
